We go through 13 compounds from patent US20220168427A1 (Ranok Therapeutics (Hangzhou) Co. Ltd., priority 2019, published 2022).

One data set deals with MV4-11 cells. Kind of data set: MV4-11 Cell Cytotoxicity Assay. The data set is classed as cell-based, human. The following applies: human, MV4-11 cells, CCK-8. From the text:
% Inhibition=100−(D−B)/(S−B)*100%.
S: The absorbance of the maximum (cells with DMSO)
B: The absorbance of the minimum (medium with DMSO)

The target in the next data set is HSP90α (Homo sapiens, UniProt P07900). Kind of data set: HSP90α Binding Fluorescent Polarization (FP) Assay. The following applies: competition with FITC-geldanamycin; read-out: HSP90 Binding Potency. The procedure: HSP90α Binding Fluorescent Polarization (FP) Assay
A master mix was prepared with assay buffer, BSA and FITC-geldanamycin. In a 96-well plate, a serial 3-fold dilution of each compound was prepared ranging from 40 μM down until 2.0 nM. Also in a 96-well plate, recombinant HSP90α protein was diluted to 28 μg/ml. Then, in a 384-well plate, 10 μl of master mix and 5 μl of compound dilution were added per well to duplicate wells and mixed by brief shaking. Then 5 μl of diluted HSP90α protein was added per well, mixed by brief shaking, incubated at 25° C. for 30, 60 and 120 min and fluorescence was measured on an EnVision Plate Reader. Background-subtracted mP values were calculated from EnVision raw data and a four-parameter “log[inhibitor] vs. response” curve was fitted using GraphPad Prism 7.0.

The target of a further data set is T1, BRD4 (BD1+BD2) (Homo sapiens, UniProt O60885).
T1 construct: 1.8 μg/ml recombinant BRD4 (BD1+BD2 domains) protein
The note with it: read-out: BRD4 Binding Potency. The procedure:
A master mix was prepared with assay buffer, 1.8 μg/ml recombinant BRD4 (BD1+BD2 domains) protein, and 200-fold dilutions of Tb-labeled donor and dye-labeled acceptor. 40-fold dilutions of acetylated and non-acetylated ligands were prepared in 1×BRD TR-FRET assay buffer. Also, a serial 3-fold dilution of each compound was prepared ranging from 40 μM down until 2.0 nM. In a 384-well plate, 5 μl diluted ligand and 5 μl of compound dilution were added per well to duplicate wells and mixed by brief shaking. Then 10 μl of master mix was added per well, mixed by brief shaking, incubated at 25° C. for 2 hr and fluorescence was measured on an EnVision Plate Reader. The 665 nm/615 nm ratio was calculated from EnVision raw data. Data were normalized using whole-plate averages of “positive” and “negative” readings. A four-parameter “log[inhibitor] vs. response” curve was fitted using GraphPad Prism 7.0.

The structures appear in SMILES notation. Where a name gives a salt, the structure may show the parent alone.

As to `COc1cccc(-c2cc(C(=O)Nc3ccc(-c4ccc(OC5CCN(CC[C@@H]6N=C(c7ccc(Cl)cc7)c7c(sc(C)c7C)-n7c(C)nnc76)CC5)cc4O)cc3)ccc2OC)c1` [Compound 132], in the data set with MV4-11 cells, the IC50 at 72 h is above 1000 nM. The IC50 on HSP90α and at BRD4 (BD1+BD2) was above 1000 nM in each case.
The compound `Cc1sc2c(c1C)C(c1ccc(Cl)cc1)=N[C@@H](CC(=O)N1CCC(CN3CCN(Cc4ccc(-n5c(C(=O)NC(C)C)nnc5-c5cc(C(C)C)c(O)cc5O)cc4)CC3)CC1)c1nnc(C)n1-2` [Compound 108, (S)-4-(4-((4-((1-(2-(4-(4-chlorophenyl)-2,3,9-trimethyl-6H-thieno[3,2-f][1,2,4]triazolo[4,3-a][1,4]diazepin-6-yl)acetyl)piperidin-4-yl)methyl)piperazin-1-yl)methyl)phenyl)-5-(2,4-dihydroxy-5-isopropylphenyl)-N-isopropyl-4H-1,2,4-triazole-3-carboxamide, trifluoroacetic acid] gave an IC50 at 72 h in the data set on MV4-11 cells of 100 to 1000 nM. Also, the IC50 on HSP90α and on BRD4 (BD1+BD2) was above 1000 nM in each case.
With `Cc1sc2c(c1C)C(c1ccc(Cl)cc1)=N[C@@H](CC(=O)N1CCC(CN3CCN(Cc4ccc(-n5c(C(N)=O)nnc5-c5ccc(O)cc5O)cc4)CC3)CC1)c1nnc(C)n1-2` [Compound 112, (S)-4-(4-((4-((1-(2-(4-(4-chlorophenyl)-2,3,9-trimethyl-6H-thieno[3,2-f][1,2,4]triazolo[4,3-a][1,4]diazepin-6-yl)acetyl)piperidin-4-yl)methyl)piperazin-1-yl)methyl)phenyl)-5-(2,4-dihydroxyphenyl)-4H-1,2,4-triazole-3-carboxamide, trifluoroacetic acid], in the data set with MV4-11 cells, the IC50 at 72 h was below 100 nM. Moreover, the values for the IC50 on HSP90α and on BRD4 (BD1+BD2) were 100 to 1000 nM and below 100 nM, respectively.
In turn, `CCc1cc(-c2nnc(C(=O)NC(C)C)n2-c2ccc(CN3CCN(CC4CCN(C(=O)C[C@@H]5N=C(c6ccc(Cl)cc6)c6c(sc(C)c6C)-n6c(C)nnc65)CC4)CC3)cc2)c(O)cc1O` [Compound 105, (S)-4-(4-((4-((1-(2-(4-(4-chlorophenyl)-2,3,9-trimethyl-6H-thieno[3,2-f][1,2,4]triazolo[4,3-a][1,4]diazepin-6-yl)acetyl)piperidin-4-yl)methyl)piperazin-1-yl)methyl)phenyl)-5-(5-ethyl-2,4-dihydroxyphenyl)-N-isopropyl-4H-1,2,4-triazole-3-carboxamide, trifluoroacetic acid] registered an IC50 at 72 h with MV4-11 cells below 100 nM. For the same compound, the IC50 on HSP90α and on BRD4 (BD1+BD2) was 100 to 1000 nM in each case.
Consider `CCNC(=O)c1noc(-c2cc(C(C)C)c(O)cc2O)c1-c1ccc(CN2CCN(CC3CCN(C(=O)C[C@@H]4N=C(c5ccc(Cl)cc5)c5c(sc(C)c5C)-n5c(C)nnc54)CC3)CC2)cc1` [Compound 126, (S)-4-(4-((4-((1-(2-(4-(4-chlorophenyl)-2,3,9-trimethyl-6H-thieno[3,2-f][1,2,4]triazolo[4,3-a][1,4]diazepin-6-yl)acetyl)piperidin-4-yl)methyl)piperazin-1-yl)methyl)phenyl)-5-(2,4-dihydroxy-5-isopropylphenyl)-N-ethylisoxazole-3-carboxamide hydrochloride], for which the IC50 at 72 h in the data set with MV4-11 cells is below 100 nM. Further, the IC50 on HSP90α and at BRD4 (BD1+BD2) was 100 to 1000 nM throughout.
Consider `Cc1sc2c(c1C)C(c1ccc(Cl)cc1)=N[C@@H](CC(=O)NCCOCCOc1ccc(-n3c(S)nnc3-c3cc(C(C)C)c(O)cc3O)cc1)c1nnc(C)n1-2` [Compound 33, (S)-2-(4-(4-chlorophenyl)-2,3,9-trimethyl-6H-thieno[3,2-f][1,2,4]triazolo[4,3-a][1,4]diazepin-6-yl)-N-(2-(2-(4-(3-(2,4-dihydroxy-5-isopropylphenyl)-5-mercapto-4H-1,2,4-triazol-4-yl)phenoxy)ethoxy)ethyl)acetamide], for which, in the data set on MV4-11 cells, the IC50 at 72 h lay in the range of 100 to 1000 nM. For the same compound, the IC50 at HSP90α and at BRD4 (BD1+BD2) was 100 to 1000 nM each time.
On to `CCc1cc(-c2nnc(C(=O)NCC(F)(F)F)n2-c2ccc(CC3CCN(Cc4ccc(CNC(=O)C[C@@H]5N=C(c6ccc(Cl)cc6)c6c(sc(C)c6C)-n6c(C)nnc65)cc4)CC3)cc2)c(O)cc1O` [Compound 91, (S)-4-(4-((1-(4-((2-(4-(4-chlorophenyl)-2,3,9-trimethyl-6H-thieno[3,2-f][1,2,4]triazolo[4,3-a][1,4]diazepin-6-yl)acetamido)methyl)benzyl)piperidin-4-yl)methyl)phenyl)-5-(5-ethyl-2,4-dihydroxyphenyl)-N-(2,2,2-trifluoroethyl)-4H-1,2,4-triazole-3-carboxamide, trifluoroacetic acid], for which, in the data set with MV4-11 cells, the IC50 at 72 h was below 100 nM. For the same compound, the IC50 at HSP90α and on BRD4 (BD1+BD2) was 100 to 1000 nM each time.
`Cc1sc2c(c1C)C(c1ccc(Cl)cc1)=N[C@@H](CC(=O)N[C@H](C)c1cccc(CN3CCC(Cc4ccc(-n5c(C(=O)NCC(F)(F)F)nnc5-c5cc(C(C)C)c(O)cc5O)cc4)CC3)c1)c1nnc(C)n1-2` [Compound 97, 4-(4-((1-(3-((R)-1-(2-((S)-4-(4-chlorophenyl)-2,3,9-trimethyl-6H-thieno[3,2-f][1,2,4]triazolo[4,3-a][1,4]diazepin-6-yl)acetamido)ethyl)benzyl)piperidin-4-yl)methyl)phenyl)-5-(2,4-dihydroxy-5-isopropylphenyl)-N-(2,2,2-trifluoroethyl)-4H-1,2,4-triazole-3-carboxamide, trifluoroacetic acid] came in with an IC50 at 72 h in the data set on MV4-11 cells below 100 nM. Moreover, the IC50 at HSP90α was 100 to 1000 nM; on BRD4 (BD1+BD2), below 100 nM.
Turning to `CCN(CC)CCNC(=O)c1nnc(-c2cc(C(C)C)c(O)cc2O)n1-c1ccc(CN2CCN(CC3CCN(C(=O)C[C@@H]4N=C(c5ccc(Cl)cc5)c5c(sc(C)c5C)-n5c(C)nnc54)CC3)CC2)cc1` [Compound 118, (S)-4-(4-((4-((1-(2-(4-(4-chlorophenyl)-2,3,9-trimethyl-6H-thieno[3,2-f][1,2,4]triazolo[4,3-a][1,4]diazepin-6-yl)acetyl)piperidin-4-yl)methyl)piperazin-1-yl)methyl)phenyl)-N-(2-(diethylamino)ethyl)-5-(2,4-dihydroxy-5-isopropylphenyl)-4H-1,2,4-triazole-3-carboxamide, trifluoroacetic acid], the IC50 at 72 h in the data set on MV4-11 cells was below 100 nM. In addition, the results for the IC50 on HSP90α and at BRD4 (BD1+BD2) were 100 to 1000 nM and below 100 nM, respectively.
Regarding `COc1cccc(-c2cc(C(=O)Nc3ccc(-c4ccc(OC5CCN(C)CC5)cc4OCCN(C)C(=O)C[C@@H]4N=C(c5ccc(Cl)cc5)c5c(sc(C)c5C)-n5c(C)nnc54)cc3)ccc2OC)c1` [Compound 136], the IC50 at 72 h in the data set on MV4-11 cells was 100 to 1000 nM. For the same compound, the IC50 was above 1000 nM at HSP90α and 100 to 1000 nM on BRD4 (BD1+BD2).
In the data set on MV4-11 cells, `Cc1sc2c(c1C)C(c1ccc(Cl)cc1)=N[C@@H](CC(=O)N1CCC(CCN3CCC(Cc4ccc(-n5c(O)nnc5-c5cc(C(C)C)c(O)cc5O)cc4)CC3)CC1)c1nnc(C)n1-2` [Compound 80, (S)-2-(4-(4-chlorophenyl)-2,3,9-trimethyl-6H-thieno[3,2-f][1,2,4]triazolo[4,3-a][1,4]diazepin-6-yl)-1-(4-(2-(4-(4-(3-(2,4-dihydroxy-5-isopropylphenyl)-5-hydroxy-4H-1,2,4-triazol-4-yl)benzyl)piperidin-1-yl)ethyl)piperidin-1-yl)ethan-1-one, trifluoroacetic acid] showed an IC50 at 72 h below 100 nM. The IC50 was 100 to 1000 nM at HSP90α and below 100 nM on BRD4 (BD1+BD2).
On to `Cc1sc2c(c1C)C(c1ccc(Cl)cc1)=N[C@@H](CC(=O)NCC(=O)NCCOc1ccc(-n3c(S)nnc3-c3cc(C(C)C)c(O)cc3O)cc1)c1nnc(C)n1-2` [Compound 48, (S)-2-(4-(4-chlorophenyl)-2,3,9-trimethyl-6H-thieno[3,2-f][1,2,4]triazolo[4,3-a][1,4]diazepin-6-yl)-N-(2-((2-(4-(3-(2,4-dihydroxy-5-isopropylphenyl)-5-mercapto-4H-1,2,4-triazol-4-yl)phenoxy)ethyl)amino)-2-oxoethyl)acetamide], for which, in the data set with MV4-11 cells, the IC50 at 72 h was in the range of 100 to 1000 nM. Also, the values for the IC50 on HSP90α and at BRD4 (BD1+BD2) were below 100 nM and 100 to 1000 nM, respectively.
With `Cc1sc2c(c1C)C(c1ccc(Cl)cc1)=N[C@@H](CC(=O)NCCc1ccc(CN3CCC(Cc4ccc(-n5c(O)nnc5-c5cc(C(C)C)c(O)cc5O)cc4)CC3)cc1)c1nnc(C)n1-2` [Compound 98, (S)-2-(4-(4-chlorophenyl)-2,3,9-trimethyl-6H-thieno[3,2-f][1,2,4]triazolo[4,3-a][1,4]diazepin-6-yl)-N-(4-((4-(4-(3-(2,4-dihydroxy-5-isopropylphenyl)-5-hydroxy-4H-1,2,4-triazol-4-yl)benzyl)piperidin-1-yl)methyl)phenethyl)acetamide, trifluoroacetic acid], in the data set on MV4-11 cells, the IC50 at 72 h is below 100 nM. Further, the IC50 on HSP90α and on BRD4 (BD1+BD2) was 100 to 1000 nM throughout.
